In ChEMBL document CHEMBL3272183, “Analgesics. 1. Synthesis and analgesic properties of N-sec-alkyl- and N-tert-alkylnormorphines” (J Med Chem, 1978):
Active and inactive are the calls of the source. No cut-off for these calls is given here.

How the values were obtained:
Mus musculus [1] = organism: Mus musculus; assay: Analgesic activity in Swiss-Webster mouse measured for 20 mins by tail flick test; assay type: functional
Mus musculus [2] = organism: Mus musculus; assay: Analgesic activity in Swiss-Webster mouse assessed as reduction of […]-induced writhing; assay type: functional
Mus musculus [3] = assay: In vivo inhibition of morphine-induced straub-tail response in sc dosed Swiss-Webster mouse measured for 30 mins; assay type: functional; conditions: for ED50: 0.5 h
Opioid receptor [4] = target: T1, Opioid receptor (Rattus norvegicus, UniProt P33533+P34975+P33535); assay: Displacement of [3H]-naloxone from rat opioid receptor after 30 mins by liquid scintillation counting analysis in absence of NaCl; assay type: protein assay
Opioid receptor [5] = target: T1, Opioid receptor; assay: Displacement of [3H]-naloxone from rat opioid receptor after 30 mins by liquid scintillation counting analysis in presence of NaCl; assay type: protein assay

Structure (SMILES) | ED50 (Mus musculus [1]) | ED50 (Mus musculus [2]) | inhibition (Mus musculus [3]) | IC50 (Opioid receptor [4]) | IC50 (Opioid receptor [5]) | ED50 (Mus musculus [3])
CN1CC[C@]23c4c5ccc(O)c4O[C@H]2[C@@H](O)C=C[C@H]3[C@H]1C5 [MORPHINE] | 10.5 µmol/kg | 1.5 µmol/kg | inactive | – | – | –
CC[C@@H](C)N1CC[C@]23c4c5ccc(O)c4O[C@H]2[C@@H](O)C=C[C@H]3[C@H]1C5 | – | – | – | 0.06 µM | 0.11 µM | –
CCCC(C)N1CC[C@]23c4c5ccc(O)c4O[C@H]2[C@@H](O)C=C[C@H]3[C@H]1C5 (some centres not stated) | > 439 µmol/kg | 9 µmol/kg | – | 0.037 µM | 0.34 µM | 80.8 µmol/kg
CC(C)(Cc1ccccc1)N1CC[C@]23c4c5ccc(O)c4O[C@H]2[C@@H](O)C=C[C@H]3[C@H]1C5 | > 310 µmol/kg | > 176 µmol/kg | – | 1 µM | 1 µM | –
Oc1ccc2c3c1O[C@H]1[C@@H](O)C=C[C@H]4[C@@H](C2)N(CCc2ccccc2)CC[C@@]341 | 1.7 µmol/kg | 0.27 µmol/kg | inactive | 0.0042 µM | 0.133 µM | –
CCC(CC)N1CC[C@]23c4c5ccc(O)c4O[C@H]2[C@@H](O)C=C[C@H]3[C@H]1C5 | – | – | – | 0.078 µM | 0.175 µM | –
C=C[C@@H](C)N1CC[C@]23c4c5ccc(O)c4O[C@H]2[C@@H](O)C=C[C@H]3[C@H]1C5 | – | – | – | 0.027 µM | 0.08 µM | –
C=C[C@H](C)N1CC[C@]23c4c5ccc(O)c4O[C@H]2[C@@H](O)C=C[C@H]3[C@H]1C5 | 105 µmol/kg | – | – | 0.016 µM | 0.025 µM | –
Oc1ccc2c3c1O[C@H]1[C@@H](O)C=C[C@H]4[C@@H](C2)N(C2CCCC2)CC[C@@]341 | 124 µmol/kg | 15.5 µmol/kg | – | 0.034 µM | 0.045 µM | 15.5 µmol/kg
Oc1ccc2c3c1O[C@H]1[C@@H](O)C=C[C@H]4[C@@H](C2)N(C2C=CCCC2)CC[C@@]341 (some centres not stated) | 79.7 µmol/kg | – | – | 0.051 µM | 0.13 µM | 23.8 µmol/kg
CC(Cc1ccccc1)N1CC[C@]23c4c5ccc(O)c4O[C@H]2[C@@H](O)C=C[C@H]3[C@H]1C5 (some centres not stated) | 4.3 µmol/kg | 0.13 µmol/kg | inactive | 0.0034 µM | 0.125 µM | –
C=CCN1CC[C@]23c4c5ccc(O)c4O[C@H]2[C@@H](O)C=C[C@H]3[C@H]1C5 [NALORPHINE] | – | 3.2 µmol/kg | – | 0.002 µM | 0.006 µM | –
Oc1ccc2c3c1O[C@H]1[C@@H](O)C=C[C@H]4[C@@H](C2)N(C2CCCCCC2)CC[C@@]341 | > 136 µmol/kg | 9.9 µmol/kg | – | 0.019 µM | 0.15 µM | 60.8 µmol/kg
Oc1ccc2c3c1O[C@H]1[C@@H](O)C=C[C@H]4[C@@H](C2)N(C2CCCCC2)CC[C@@]341 | > 212 µmol/kg | 15.7 µmol/kg | – | 0.038 µM | 0.092 µM | –
C=CC(C)(C)N1CC[C@]23c4c5ccc(O)c4O[C@H]2[C@@H](O)C=C[C@H]3[C@H]1C5 | > 295 µmol/kg | 74 µmol/kg | – | > 1 µM | > 1 µM | –
CCCN1CC[C@]23c4c5ccc(O)c4O[C@H]2[C@@H](O)C=C[C@H]3[C@H]1C5 | 51 µmol/kg | 29 µmol/kg | – | 0.014 µM | 0.014 µM | 0.6 µmol/kg
CCC(C)(C)N1CC[C@]23c4c5ccc(O)c4O[C@H]2[C@@H](O)C=C[C@H]3[C@H]1C5 | > 580 µmol/kg | > 290 µmol/kg | – | 1 µM | 1 µM | –
CC[C@H](C)N1CC[C@]23c4c5ccc(O)c4O[C@H]2[C@@H](O)C=C[C@H]3[C@H]1C5 | – | – | – | 0.028 µM | 0.062 µM | –
